Experimental data: ChEMBL document CHEMBL4373695, “Structure-Based Design of 5-Methylpyrimidopyridone Derivatives as New Wild-Type Sparing Inhibitors of the Epidermal Growth Factor Receptor Triple Mutant (EGFRL858R/T790M/C797S)” (J Med Chem, 2019)
Active and inactive are the calls of the source. The calls are words filed in the database; no cut-off is given here.

Legend:
[1] = target: T1, Epidermal growth factor receptor (Homo sapiens, UniProt P00533); experiment: Inhibition of wild-type EGFR (unknown origin) using Poly(Glu,Tyr) 4:1 as substrate after 60 mins by ELISA
T1 sequence (P00533 whole entry, the tested form may be a part): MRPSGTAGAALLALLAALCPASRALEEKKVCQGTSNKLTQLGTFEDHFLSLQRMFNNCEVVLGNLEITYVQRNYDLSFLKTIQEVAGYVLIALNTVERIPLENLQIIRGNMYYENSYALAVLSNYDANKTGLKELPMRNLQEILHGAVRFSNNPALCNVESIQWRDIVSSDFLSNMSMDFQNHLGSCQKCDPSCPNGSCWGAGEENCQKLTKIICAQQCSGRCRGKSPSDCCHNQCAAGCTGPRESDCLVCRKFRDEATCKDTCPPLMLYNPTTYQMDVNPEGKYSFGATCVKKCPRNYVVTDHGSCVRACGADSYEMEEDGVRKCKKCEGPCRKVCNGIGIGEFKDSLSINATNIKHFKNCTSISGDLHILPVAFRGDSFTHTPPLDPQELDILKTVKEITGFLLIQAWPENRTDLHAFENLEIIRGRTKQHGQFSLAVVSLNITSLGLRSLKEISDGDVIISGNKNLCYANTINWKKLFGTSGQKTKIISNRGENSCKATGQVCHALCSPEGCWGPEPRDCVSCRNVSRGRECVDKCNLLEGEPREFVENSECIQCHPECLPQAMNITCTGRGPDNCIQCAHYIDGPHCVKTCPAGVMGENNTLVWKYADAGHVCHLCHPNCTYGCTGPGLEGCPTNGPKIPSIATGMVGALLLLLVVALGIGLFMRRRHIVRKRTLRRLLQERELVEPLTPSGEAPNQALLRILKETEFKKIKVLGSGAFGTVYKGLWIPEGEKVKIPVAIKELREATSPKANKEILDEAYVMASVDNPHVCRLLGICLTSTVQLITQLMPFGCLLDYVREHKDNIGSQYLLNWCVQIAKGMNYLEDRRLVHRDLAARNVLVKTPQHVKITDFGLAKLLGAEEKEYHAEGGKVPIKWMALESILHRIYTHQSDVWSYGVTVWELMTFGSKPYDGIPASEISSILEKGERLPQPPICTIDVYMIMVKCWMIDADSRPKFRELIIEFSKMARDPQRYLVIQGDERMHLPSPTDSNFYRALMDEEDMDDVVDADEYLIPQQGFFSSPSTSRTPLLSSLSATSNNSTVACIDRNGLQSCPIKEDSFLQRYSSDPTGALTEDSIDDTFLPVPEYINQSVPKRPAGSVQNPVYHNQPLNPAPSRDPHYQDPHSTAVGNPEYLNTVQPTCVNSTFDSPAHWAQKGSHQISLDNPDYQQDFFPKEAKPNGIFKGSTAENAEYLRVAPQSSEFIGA

[2] = target: Epidermal growth factor receptor (Homo sapiens, UniProt P00533, C797S/L858R/T790M); experiment: (§1) Inhibition of human C-terminal His-tagged and N-terminal GST-tagged EGFR L858R/T790M/C797S triple mutant ( 668 to 1210 amino acids) expressed in baculovirus infected Sf9 insect cells using Poly(Glu,Tyr) 4:1 as substrate after 60 mins by ELISA
Epidermal growth factor receptor (Homo sapiens, UniProt P00533, C797S/L858R/T790M), sequence (P00533 25-1210 T790M/C797S/L858R limits assumed): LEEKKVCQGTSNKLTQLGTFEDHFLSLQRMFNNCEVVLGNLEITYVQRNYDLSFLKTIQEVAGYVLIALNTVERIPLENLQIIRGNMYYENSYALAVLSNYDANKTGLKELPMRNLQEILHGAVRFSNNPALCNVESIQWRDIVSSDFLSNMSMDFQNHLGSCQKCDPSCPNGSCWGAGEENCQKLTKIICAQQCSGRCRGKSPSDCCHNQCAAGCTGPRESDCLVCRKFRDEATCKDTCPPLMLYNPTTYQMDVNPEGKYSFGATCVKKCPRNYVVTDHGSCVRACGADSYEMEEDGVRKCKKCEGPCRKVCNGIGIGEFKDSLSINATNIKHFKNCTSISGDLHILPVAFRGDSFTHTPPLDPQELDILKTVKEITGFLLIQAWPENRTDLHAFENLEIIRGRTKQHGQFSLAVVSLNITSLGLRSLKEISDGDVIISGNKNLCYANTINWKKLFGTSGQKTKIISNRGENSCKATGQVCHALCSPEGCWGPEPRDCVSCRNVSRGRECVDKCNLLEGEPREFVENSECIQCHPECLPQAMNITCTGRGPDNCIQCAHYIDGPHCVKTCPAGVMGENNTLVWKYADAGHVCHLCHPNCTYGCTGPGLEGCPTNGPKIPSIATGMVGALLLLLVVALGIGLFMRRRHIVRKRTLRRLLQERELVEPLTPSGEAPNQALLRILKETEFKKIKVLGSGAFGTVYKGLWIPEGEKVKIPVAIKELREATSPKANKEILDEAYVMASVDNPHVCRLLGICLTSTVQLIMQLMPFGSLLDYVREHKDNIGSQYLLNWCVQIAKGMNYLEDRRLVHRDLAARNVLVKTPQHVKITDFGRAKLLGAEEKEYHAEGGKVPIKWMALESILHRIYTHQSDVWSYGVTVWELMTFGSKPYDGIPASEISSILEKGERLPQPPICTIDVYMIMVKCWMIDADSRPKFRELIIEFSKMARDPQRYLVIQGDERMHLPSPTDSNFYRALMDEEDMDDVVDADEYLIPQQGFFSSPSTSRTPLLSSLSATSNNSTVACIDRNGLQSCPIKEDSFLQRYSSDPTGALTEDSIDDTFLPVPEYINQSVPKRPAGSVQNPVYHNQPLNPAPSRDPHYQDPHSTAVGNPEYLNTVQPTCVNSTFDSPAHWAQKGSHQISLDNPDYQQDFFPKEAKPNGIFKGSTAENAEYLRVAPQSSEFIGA

[3] = target: Epidermal growth factor receptor (Homo sapiens, UniProt P00533, T790M/C797S/L858R); experiment: as §1; settings: sf9
Epidermal growth factor receptor (Homo sapiens, UniProt P00533, T790M/C797S/L858R), sequence (P00533 25-1210 T790M/C797S/L858R limits assumed): as above

[4] = Metabolic stability in rat liver microsomes preincubated for 5 mins followed by NADPH addition and measured after 5 to 45 mins by LC/MS analysis; type: ADME, Microsome
[5] = test system: Epidermal growth factor receptor (Homo sapiens), P00533 [L858R,T790M,C797S]; experiment: Inhibition of EGFR L858R/T790M/C797S triple mutant (unknown origin) transfected in mouse BAF3 cells assessed as reduction in EGF-induced EGFR phosphorylation at 0.1 to 3 uM by Western blot analysis; type: cell-based
Epidermal growth factor receptor (Homo sapiens), P00533 [L858R,T790M,C797S], sequence (P00533 whole entry T790M/C797S/L858R): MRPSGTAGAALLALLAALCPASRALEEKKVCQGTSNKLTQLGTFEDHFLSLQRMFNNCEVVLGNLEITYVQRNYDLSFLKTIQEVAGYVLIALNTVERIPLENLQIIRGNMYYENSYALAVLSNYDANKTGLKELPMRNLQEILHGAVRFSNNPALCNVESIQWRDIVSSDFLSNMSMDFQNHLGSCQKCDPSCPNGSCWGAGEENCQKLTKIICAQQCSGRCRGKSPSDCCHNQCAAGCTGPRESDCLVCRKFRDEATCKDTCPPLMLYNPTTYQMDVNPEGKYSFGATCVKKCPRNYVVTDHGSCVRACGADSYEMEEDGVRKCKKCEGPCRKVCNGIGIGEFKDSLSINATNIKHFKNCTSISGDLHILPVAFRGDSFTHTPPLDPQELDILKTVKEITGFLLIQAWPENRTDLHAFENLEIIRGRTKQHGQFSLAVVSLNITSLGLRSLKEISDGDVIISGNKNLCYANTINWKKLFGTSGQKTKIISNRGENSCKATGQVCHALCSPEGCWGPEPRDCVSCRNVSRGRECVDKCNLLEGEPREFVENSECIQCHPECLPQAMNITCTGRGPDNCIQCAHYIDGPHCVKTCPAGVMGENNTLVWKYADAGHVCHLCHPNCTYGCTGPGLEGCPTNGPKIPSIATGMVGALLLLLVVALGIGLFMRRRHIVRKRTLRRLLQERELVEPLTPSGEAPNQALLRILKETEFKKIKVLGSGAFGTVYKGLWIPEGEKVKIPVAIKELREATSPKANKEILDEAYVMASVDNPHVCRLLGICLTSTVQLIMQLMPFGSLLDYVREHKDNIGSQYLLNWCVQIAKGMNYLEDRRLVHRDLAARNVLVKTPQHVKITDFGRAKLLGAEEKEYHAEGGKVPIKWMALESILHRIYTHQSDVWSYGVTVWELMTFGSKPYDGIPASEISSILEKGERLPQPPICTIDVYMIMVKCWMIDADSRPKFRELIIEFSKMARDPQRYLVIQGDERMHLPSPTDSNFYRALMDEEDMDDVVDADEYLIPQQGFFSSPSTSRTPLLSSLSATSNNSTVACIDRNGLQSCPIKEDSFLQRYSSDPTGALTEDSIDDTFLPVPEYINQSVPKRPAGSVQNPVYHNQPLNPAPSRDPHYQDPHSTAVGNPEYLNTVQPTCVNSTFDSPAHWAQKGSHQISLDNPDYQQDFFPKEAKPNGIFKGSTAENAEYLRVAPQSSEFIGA

[6] = target: T1, Epidermal growth factor receptor; experiment: Inhibition of wild-type EGFR (unknown origin) transfected in human A431 cells assessed as reduction in EGF-induced EGFR phosphorylation at 0.1 to 3 uM by Western blot analysis; type: cell-based
BaF3 = experiment: Antiproliferative activity against mouse BAF3 cells harboring EGFR L858R/T790M/C797S triple mutant after 72 hrs by resazurin dye-based fluorescence assay; type: functional, cell-based; settings: BaF3, 72 h
[7] = Aqueous solubility of the compound at 2 mg at pH 7.4 after 24 hrs by LC-MS/MS analysis; type: physicochemical; settings: pH 7.4, 24 h
[8] = Permeability of the compound in human Caco2 cells at 10 uM after 120 mins by LC-MS/MS analysis; type: ADME, cell-based; settings: caco-2, 2 h

| SMILES | IC50 [1] [nM] | IC50 [2] [nM] | further results |
| --- | --- | --- | --- |
| CCC(=O)N1CCC[C@@H](n2c(=O)c(-c3ccccc3C)c(C)c3cnc(Nc4ccc(N5CCN(C)CC5)c(C)c4)nc32)C1 (stereo in doubt; 8m-B) | > 1000 | 228 |  |
| CCC(=O)N1CCC[C@@H](n2c(=O)c(-c3cc(F)ccc3Cl)c(C)c3cnc(Nc4ccc(N5CCN(C)CC5)c(C)c4)nc32)C1 (stereo in doubt; 8p-B) | > 1000 | 37.1 |  |
| CCC(=O)N1CCC[C@@H](n2c(=O)c(-c3ccccc3)c(C)c3cnc(Nc4ccc(N5CCN(C)CC5)c(C)c4)nc32)C1 | > 1000 | > 1000 |  |
| N#Cc1ccc(O)c(-c2nc(NCc3cnccn3)c3ccccc3n2)c1 | > 1000 | 38.7 |  |
| CCC(=O)N1CCC[C@@H](n2c(=O)c(-c3ccc(F)cc3Cl)c(C)c3cnc(Nc4ccc(N5CCN(C)CC5)c(C)c4)nc32)C1 (stereo in doubt; 8q-A) | > 1000 | 224 |  |
| CCC(=O)N1CC[C@@H](n2c(=O)c(-c3ccccc3Cl)c(C)c3cnc(Nc4ccc(N5CCN(C)CC5)c(C)c4)nc32)C1 (stereo in doubt; 8g-A) | > 1000 | > 1000 |  |
| CCC(=O)N1CCC[C@@H](n2c(=O)c(-c3ccccc3Br)c(C)c3cnc(Nc4ccc(N5CCN(C)CC5)c(C)c4)nc32)C1 (stereo in doubt; 8l-B) | > 1000 | 56.1 |  |
| CCC(=O)N1CCC[C@@H](n2c(=O)c(-c3ccccc3C)c(C)c3cnc(Nc4ccc(N5CCN(C)CC5)c(C)c4)nc32)C1 (stereo in doubt; 8m-A) | > 1000 | 588 |  |
| CCC(=O)N1CCC[C@H](n2c(=O)c(-c3ccccc3Cl)c(C)c3cnc(Nc4ccc(N5CCN(C)CC5)c(C)c4)nc32)C1 (stereo in doubt; 8e-B) | > 1000 |  | IC50 [3]: > 1000 nM |
| CCC(=O)N1CCC[C@@H](n2c(=O)c(-c3cccc(Cl)c3)c(C)c3cnc(Nc4ccc(N5CCN(C)CC5)c(C)c4)nc32)C1 | > 1000 | > 1000 |  |
| CCC(=O)N1CCC[C@@H](n2c(=O)c(-c3ccccc3Cl)c(C)c3cnc(Nc4ccc(N5CCN(C)CC5)c(C)c4)nc32)C1 (stereo in doubt; 8f-A) | > 1000 | > 1000 |  |
| CCC(=O)N1CCC[C@@H](n2c(=O)c(-c3cccc(F)c3Cl)c(C)c3cnc(Nc4ccc(N5CCN(C)CC5)c(C)c4)nc32)C1 (stereo in doubt; 8r-B) |  |  | Stability [4]: Unstable; inhibition [5]: Active; inhibition (INH) [6]: Not Active; IC50 (BaF3): 662 nM; solubility [7]: Soluble; permeability [8]: Permeable |
| CCC(=O)N1CCC[C@@H](n2c(=O)c(-c3cc(F)ccc3Cl)c(C)c3cnc(Nc4ccc(N5CCN(C)CC5)c(C)c4)nc32)C1 (stereo in doubt; 8p-A) | > 1000 | 207 |  |
| CCC(=O)N1CCC[C@@H](n2c(=O)c(-c3ccccc3Cl)c(C)c3cnc(Nc4ccc(N5CCN(C)CC5)c(C)c4)nc32)C1 (stereo in doubt; 8f-B) | > 1000 | 65.1 |  |
| CCC(=O)N1CCC[C@@H](n2c(=O)c(-c3ccc(F)cc3Cl)c(C)c3cnc(Nc4ccc(N5CCN(C)CC5)c(C)c4)nc32)C1 (stereo in doubt; 8q-B) | > 1000 | 88.6 |  |
| CCC(=O)N1CCC[C@H](n2c(=O)c(-c3ccccc3Cl)c(C)c3cnc(Nc4ccc(N5CCN(C)CC5)c(C)c4)nc32)C1 (stereo in doubt; 8e-A) | > 1000 | > 1000 |  |
| CCC(=O)N[C@H]1CC[C@@H](n2c(=O)c(-c3ccccc3Cl)c(C)c3cnc(Nc4ccc(N5CCN(C)CC5)c(C)c4)nc32)CC1 (stereo in doubt; 8c-A) | > 1000 | 519 |  |
| CCC(=O)N1CCC[C@@H](n2c(=O)c(-c3ccc(Cl)cc3)c(C)c3cnc(Nc4ccc(N5CCN(C)CC5)c(C)c4)nc32)C1 | > 1000 | > 1000 |  |
| CCC(=O)N1CCC[C@@H](n2c(=O)c(-c3ccccc3Br)c(C)c3cnc(Nc4ccc(N5CCN(C)CC5)c(C)c4)nc32)C1 (stereo in doubt; 8l-A) | > 1000 | 498 |  |
| CCC(=O)N[C@H]1CC[C@@H](n2c(=O)c(-c3ccccc3Cl)c(C)c3cnc(Nc4ccc(N5CCN(C)CC5)c(C)c4)nc32)CC1 (stereo in doubt; 8c-B) | 169 | 27.7 |  |
| CCC(=O)N1CC[C@@H](n2c(=O)c(-c3ccccc3Cl)c(C)c3cnc(Nc4ccc(N5CCN(C)CC5)c(C)c4)nc32)C1 (stereo in doubt; 8g-B) | > 1000 | 81.7 |  |
